Biological target: HsClpP (Homo sapiens, UniProt Q16740)
Assay: HsClpP enzyme hydrolysis of short peptide substrate AC-WLA-AMC
Conditions: promoting hydrolysis of short peptide substrate by HsClpP, relative to blank control

Sequence of HsClpP (Q16740 57-277): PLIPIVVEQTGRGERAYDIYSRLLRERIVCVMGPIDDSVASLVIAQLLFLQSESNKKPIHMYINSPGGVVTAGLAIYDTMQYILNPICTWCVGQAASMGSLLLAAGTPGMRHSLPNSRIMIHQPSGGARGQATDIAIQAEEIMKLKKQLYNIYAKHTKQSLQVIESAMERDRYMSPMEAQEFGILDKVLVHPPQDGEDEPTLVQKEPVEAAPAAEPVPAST

| Structure (SMILES) | Regulatory efficacy 10 μM | Regulatory efficacy 1 μM |
| --- | --- | --- |
| CCN1CCn2c1nc(=O)c1c2CCN(Cc2ccccc2)C1 [Compound 3, 7-benzyl-3-ethyl-2,3,6,7,8,9-hexahydroimidazo[1,2-a]pyrido[3,4-e]pyrimidin-5(1H)-one] | + (+ indicating that the increased efficacy is less than 50% of the blank control group) | + (+ indicating that the increased efficacy is less than 50% of the blank control group) |
| CC(C)CCN1CCn2c1nc(=O)c1c2CCN(Cc2ccccc2)C1 [Compound 4, 7-benzyl-3-isopentyl-2,3,6,7,8,9-hexahydroimidazo[1,2-a]pyrido[3,4-e]pyrimidin-5(1H)-one] | + + | + + |
| O=c1nc2n(c3c1CN(Cc1ccccc1)CC3)CCN2c1ccccc1 [Compound 9, 7-benzyl-3-phenyl-2,3,6,7,8,9-hexahydroimidazo[1,2-a]pyrido[3,4-e]pyrimidin-5(1H)-one] | + + | + (+ indicating that the increased efficacy is less than 50% of the blank control group) |
| O=c1nc2n(c3c1CN(Cc1ccccc1)CC3)CCN2CCc1ccccc1 [Compound 10, 7-benzyl-3-(phenylethyl)-2,3,6,7,8,9-hexahydroimidazo[1,2-a]pyrido[3,4-e]pyrimidin-5(1H)-one] | + + | + + |
| O=c1nc2n(c3c1CN(Cc1ccccc1)CC3)CCN2Cc1cccnc1 [Compound 23, 7-benzyl-3-(3-pyridinylmethyl)-2,3,6,7,8,9-hexahydroimidazo[1,2-a]pyrido[3,4-e]pyrimidin-5(1H)-one] | + + | + (+ indicating that the increased efficacy is less than 50% of the blank control group) |
| O=c1nc2n(c3c1CN(Cc1ccccc1)CC3)CCN2Cc1ccncc1 [Compound 24, 7-benzyl-3-(4-pyridinylmethyl)-2,3,6,7,8,9-hexahydroimidazo[1,2-a]pyrido[3,4-e]pyrimidin-5(1H)-one] | + + | + (+ indicating that the increased efficacy is less than 50% of the blank control group) |
| O=c1nc2n(c3c1CN(Cc1ccccc1)CC3)CCN2Cc1ccco1 [Compound 25, 7-benzyl-3-(2-furfuryl)-2,3,6,7,8,9-hexahydroimidazo[1,2-a]pyrido[3,4-e]pyrimidin-5(1H)-one] | + + | + (+ indicating that the increased efficacy is less than 50% of the blank control group) |
| Cc1ccccc1CN1CCn2c1nc(=O)c1c2CCN(C(=O)OC(C)(C)C)C1 [Compound 27, 7-tert-butoxycarbonyl-3-(2-methylbenzyl)-2,3,6,7,8,9-hexahydroimidazo[1,2-a]pyrido[3,4-e]pyrimid in-5(1H)-one] | + + | + + |
| Cc1ccccc1CN1CCn2c1nc(=O)c1c2CCN(CC(C)C)C1 [Compound 29, 7-isobutyl-3-(2-methylbenzyl)-2,3,6,7,8,9-hexahydroimidazo[1,2-a]pyrido[3,4-e]pyrimidin-5(1H)-one] | + (+ indicating that the increased efficacy is less than 50% of the blank control group) | + (+ indicating that the increased efficacy is less than 50% of the blank control group) |
| Cc1ccccc1CN1CCn2c1nc(=O)c1c2CCN(CC2CC2)C1 [Compound 30] | + (+ indicating that the increased efficacy is less than 50% of the blank control group) | + (+ indicating that the increased efficacy is less than 50% of the blank control group) |
| Cc1ccccc1CN1CCn2c1nc(=O)c1c2CCN(CC2CCCCC2)C1 [Compound 31, 7-cyclohexylmethyl-3-(2-methylbenzyl)-2,3,6,7,8,9-hexahydroimidazo[1,2-a]pyrido[3,4-e]pyrimidin-5(1H)-one] | + + | + (+ indicating that the increased efficacy is less than 50% of the blank control group) |
| Cc1ccc(CN2CCc3c(c(=O)nc4n3CCN4Cc3ccccc3C)C2)cc1 [Compound 33, 3-(2-methylbenzyl)-7-(4-methylbenzyl)-2,3,6,7,8,9-hexahydroimidazo[1,2-a]pyrido[3,4-e]pyrimidin-5(1H)-one] | + + | + + |
| Cc1ccccc1CN1CCn2c1nc(=O)c1c2CCN(Cc2ccccc2C#N)C1 [Compound 34, 2-((3-(2-methylbenzyl)-5-oxo-2,3,6,7,8,9-hexahydroimidazo[1,2-a]pyrido[3,4-e]pyrimidin-7(6H)-yl)methyl)benzonitrile] | + + | + + |
| Cc1ccccc1CN1CCn2c1nc(=O)c1c2CCN(C(=O)Cc2ccccc2)C1 [Compound 40, 3-(2-methylbenzyl)-7-(2-phenylacetyl)-2,3,6,7,8,9-hexahydroimidazo[1,2-a]pyrido[3,4-e]pyrimidin-5(1H)-one] | + (+ indicating that the increased efficacy is less than 50% of the blank control group) | + (+ indicating that the increased efficacy is less than 50% of the blank control group) |
| Cc1ccccc1CN1CCn2c1nc(=O)c1c2CCN(CCCCc2ccccc2)C1 [Compound 41, 3-(2-methylbenzyl)-7-(4-phenylbutyl)-2,3,6,7,8,9-hexahydroimidazo[1,2-a]pyrido[3,4-e]pyrimidin-5 (1H)-one] | + (+ indicating that the increased efficacy is less than 50% of the blank control group) | + (+ indicating that the increased efficacy is less than 50% of the blank control group) |
| Cc1ccccc1CN1CCn2c1nc(=O)c1c2CCN(c2nncs2)C1 [Compound 45, 3-(2-methylbenzyl)-7-(1,3,4-thiadiazol-2-yl)-2,3,6,7,8,9-hexahydroimidazo[1,2-a]pyrido[3,4-e]pyri midin-5(1H)-one] | + (+ indicating that the increased efficacy is less than 50% of the blank control group) | + (+ indicating that the increased efficacy is less than 50% of the blank control group) |

Second part, led by results:

| Regulatory efficacy 10 μM | Structure (SMILES) | Regulatory efficacy 1 μM |
| --- | --- | --- |
| + + | Cc1ccccc1CN1CCn2c1nc(=O)c1c2CCN(Cc2ccc(F)c(F)c2)C1 [Compound 36, 7-(3,4-difluorobenzyl)-3-(2-methylbenzyl)-2,3,6,7,8,9-hexahydroimidazo[1,2-a]pyrido[3,4-e]pyrimidin-5(1H)-one] | + + |
| + + | Cc1ccccc1CN1CCn2c1nc(=O)c1c2CCN(Cc2ccc(F)cc2F)C1 [Compound 37, 7-(2,4-difluorobenzyl)-3-(2-methylbenzyl)-2,3,6,7,8,9-hexahydroimidazo[1,2-a]pyrido[3,4-e]pyrimidin-5(1H)-one] | + (+ indicating that the increased efficacy is less than 50% of the blank control group) |
| + + | Cc1ccccc1CN1CCn2c1nc(=O)c1c2CCN(Cc2ccc(F)cc2)C1 [Compound 38, 7-(4-fluorobenzyl)-3-(2-methylbenzyl)-2,3,6,7,8,9-hexahydroimidazo[1,2-a]pyrido[3,4-e]pyrimidin-5(1H)-one] | + + |
| + + | Cc1ccccc1CN1CCn2c1nc(=O)c1c2CCN(CCc2ccccc2)C1 [Compound 42, 3-(2-methylbenzyl)-7-phenethyl-2,3,6,7,8,9-hexahydroimidazo[1,2-a]pyrido[3,4-e]pyrimidin-5(1H)-one] | + (+ indicating that the increased efficacy is less than 50% of the blank control group) |
| + + | Cc1ccccc1CN1CCn2c1nc(=O)c1c2CCN(Cc2cccnc2)C1 [Compound 43, 3-(2-methylbenzyl)-7-(pyridin-3-methyl)-2,3,6,7,8,9-hexahydroimidazo[1,2-a]pyrido[3,4-e]pyrimidi n-5(1H)-one] | + (+ indicating that the increased efficacy is less than 50% of the blank control group) |
| + + | Cc1ccccc1CN1CCn2c1nc(=O)c1c2CCN(Cc2ccncc2)C1 [Compound 44, 3-(2-methylbenzyl)-7-(pyridin-4-methyl)-2,3,6,7,8,9-hexahydroimidazo[1,2-a]pyrido[3,4-e]pyrimidi n-5(1H)-one] | + (+ indicating that the increased efficacy is less than 50% of the blank control group) |
| + + | Cc1ccccc1CN1CCCn2c1nc(=O)c1c2CCN(Cc2ccccc2)C1 [Compound 46, 3-Benzyl-7-(2-methylbenzyl)-1,2,3,4,7,8,9, 10-octahydro-5H-pyrido[3,4-e]pyrimido[1,2-a] pyrimidin-5-one] | + (+ indicating that the increased efficacy is less than 50% of the blank control group) |
| + + | Cc1ccccc1CN1CCn2c1nc(=O)c1c2C(F)(F)CN(Cc2ccccc2)C1 [Compound 47, 7-Benzyl-9,9-difluoro-3-(2-methylbenzyl)-2,3,6,7,8,9-hexahydroimidazo[1,2-a]pyrido[3,4-e]pyrimid in-5(1H)-one] | + + |
| + + | Cc1cccc(CN2CCn3c2nc(=O)c2c3C(F)(F)CN(Cc3ccccc3)C2)c1 [Compound 48, 7-Benzyl-9,9-difluoro-3-(3-methylbenzyl)-2,3,6,7,8,9-hexahydroimidazo[1,2-a]pyrido[3,4-e]pyrimid in-5(1H)-one] | + + |
| + + | O=c1nc2n(c3c1CN(Cc1ccccc1)CC3(F)F)CCN2Cc1ccc(F)c(Br)c1 [Compound 49, 7-Benzyl-9,9-difluoro-3-(3-bromo-4-fluorobenzyl)-2,3,6,7,8,9-hexahydroimidazo[1,2-a]pyrido[3,4-e]pyrimidin-5(1H)-one] | + + |
| + + | N#Cc1cccc(CN2Cc3c(n4c(nc3=O)N(Cc3ccc(F)c(F)c3)CC4)C(F)(F)C2)c1 [Compound 50, 3-((3-(3,4-difluorobenzyl)-9,9-difluoro-5-oxo-2,3,6,7,8,9-hexahydroimidazo[1,2-a]pyrido[3,4-e]pyrimidin-7(6H)-yl)methyl)benzonitrile] | + + |
